Data published in the OligoGym collection.
Oligonucleotides are written 5' to 3', each unit as a sugar letter and its base; * is a phosphorothioate linkage, no mark a phosphodiester; rarer units and linkages stand in square brackets, end groups in braces. Plain capitals give the bases only. d = 2'-deoxy (DNA); r = 2'-OH (RNA)

Biological target: MRFAP1
Experiment: reporter assay of Huesken 2005
Details: siRNA
Note: test concentration or dose not given here.

| Substance | normalised inhibition (eCFP-eYFP dual reporter) |
| --- | --- |
| sense rUrUrUrGrGrArArArArUrGrCrGrCrUrCrArCrAdTdT / antisense rUrGrUrGrArGrCrGrCrArUrUrUrUrCrCrArArAdTdC | 47.6% |
| sense rArArArUrArArCrUrUrUrGrArUrUrUrGrGrArAdTdT / antisense rUrUrCrCrArArArUrCrArArArGrUrUrArUrUrUdTdC | 70.2% |
| sense rCrUrGrCrUrGrCrCrCrGrUrCrArUrCrCrArCrGdTdT / antisense rCrGrUrGrGrArUrGrArCrGrGrGrCrArGrCrArGdAdA | 39.5% |
| sense rCrArArArGrGrArGrGrArGrArGrArUrGrUrArUdTdT / antisense rArUrArCrArUrCrUrCrUrCrCrUrCrCrUrUrUrGdGdT | 99.2% |
| sense rCrCrCrUrGrUrGrArCrArCrUrGrArGrArCrUrUdTdT / antisense rArArGrUrCrUrCrArGrUrGrUrCrArCrArGrGrGdAdC | 65.9% |
| sense rCrUrUrGrUrUrCrGrUrCrUrGrUrArCrArArGrUdTdT / antisense rArCrUrUrGrUrArCrArGrArCrGrArArCrArArGdAdC | 54.3% |
| sense rCrUrCrArArCrCrArCrCrUrGrCrArGrGrGrCrGdTdT / antisense rCrGrCrCrCrUrGrCrArGrGrUrGrGrUrUrGrArGdAdG | 43.2% |
| sense rUrUrGrUrUrCrGrUrCrUrGrUrArCrArArGrUrUdTdT / antisense rArArCrUrUrGrUrArCrArGrArCrGrArArCrArAdGdA | 55.5% |
| sense rUrArCrGrUrUrUrCrUrGrCrUrArUrGrGrUrCrUdTdT / antisense rArGrArCrCrArUrArGrCrArGrArArArCrGrUrAdGdT | 62.7% |
| sense rArCrCrUrGrGrGrArGrArArGrGrGrUrCrGrGrAdTdT / antisense rUrCrCrGrArCrCrCrUrUrCrUrCrCrCrArGrGrUdCdA | 77.6% |
| sense rGrUrArGrUrCrArArGrCrUrArUrArArArUrGrUdTdT / antisense rArCrArUrUrUrArUrArGrCrUrUrGrArCrUrArCdAdT | 88.3% |
| sense rCrArCrCrCrUrGrGrArGrArArGrCrUrGrArArAdTdT / antisense rUrUrUrCrArGrCrUrUrCrUrCrCrArGrGrGrUrGdTdC | 66.7% |
| sense rGrArArArGrArUrCrCrUrUrGrCrArArUrArCrCdTdT / antisense rGrGrUrArUrUrGrCrArArGrGrArUrCrUrUrUrCdAdT | 82.6% |
| sense rGrGrUrGrCrArGrCrUrCrGrUrGrCrGrGrCrGrGdTdT / antisense rCrCrGrCrCrGrCrArCrGrArGrCrUrGrCrArCrCdAdG | 88.4% |
| sense rArArArUrUrUrUrArUrGrUrGrCrUrArCrArCrUdTdT / antisense rArGrUrGrUrArGrCrArCrArUrArArArArUrUrUdAdA | 46.8% |
| sense rArGrGrGrCrGrGrArGrArArGrGrCrCrGrArCrGdTdT / antisense rCrGrUrCrGrGrCrCrUrUrCrUrCrCrGrCrCrCrUdGdG | 23.9% |
| sense rArArGrGrUrUrCrArUrArUrGrUrArGrUrCrArAdTdT / antisense rUrUrGrArCrUrArCrArUrArUrGrArArCrCrUrUdGdA | 85.4% |
| sense rCrCrCrArGrGrGrCrGrGrArGrArArGrGrCrCrGdTdT / antisense rCrGrGrCrCrUrUrCrUrCrCrGrCrCrCrUrGrGrGdGdC | 65.6% |
| sense rGrArArUrArArCrGrUrUrCrArUrUrCrCrUrGrGdTdT / antisense rCrCrArGrGrArArUrGrArArCrGrUrUrArUrUrCdAdC | 66.8% |
| sense rGrUrGrGrGrArGrArUrGrGrArCrArArUrArUrGdTdT / antisense rCrArUrArUrUrGrUrCrCrArUrCrUrCrCrCrArCdAdG | 79.7% |
| sense rUrUrUrGrArGrGrUrCrArArArArCrCrCrUrUrAdTdT / antisense rUrArArGrGrGrUrUrUrUrGrArCrCrUrCrArArAdTdG | 82.6% |
| sense rGrCrArArArGrCrArGrCrGrGrArGrArUrGrCrGdTdT / antisense rCrGrCrArUrCrUrCrCrGrCrUrGrCrUrUrUrGrCdTdT | 74.8% |
| sense rArArCrUrUrUrGrArUrUrUrGrGrArArArArUrGdTdT / antisense rCrArUrUrUrUrCrCrArArArUrCrArArArGrUrUdAdT | 50.3% |
| sense rArCrGrCrArGrUrGrGrArGrCrUrGrGrCrGrGrAdTdT / antisense rUrCrCrGrCrCrArGrCrUrCrCrArCrUrGrCrGrUdCdC | 76.4% |
| sense rCrArUrGrCrArGrCrArArUrGrGrCrArGrArArGdTdT / antisense rCrUrUrCrUrGrCrCrArUrUrGrCrUrGrCrArUrGdGdA | 79.1% |
| sense rArArArArUrArArCrUrUrUrGrArUrUrUrGrGrAdTdT / antisense rUrCrCrArArArUrCrArArArGrUrUrArUrUrUrUdCdC | 69.9% |

| Substance | normalised inhibition (eCFP-eYFP dual reporter) |
| --- | --- |
| sense rGrUrGrUrGrArGrArCrCrArArArGrGrArGrGrAdTdT / antisense rUrCrCrUrCrCrUrUrUrGrGrUrCrUrCrArCrArCdAdG | 98% |
| sense rGrArCrUrUrCrArUrCrUrGrGrGrArCrUrGrUrGdTdT / antisense rCrArCrArGrUrCrCrCrArGrArUrGrArArGrUrCdTdG | 82.4% |
| sense rUrCrGrUrGrCrArGrArCrArArGrCrArArArGrCdTdT / antisense rGrCrUrUrUrGrCrUrUrGrUrCrUrGrCrArCrGrAdCdA | 67.6% |
| sense rGrGrArGrArUrGrGrCrGrArArGrArUrGrGrCrCdTdT / antisense rGrGrCrCrArUrCrUrUrCrGrCrCrArUrCrUrCrCdTdG | 72.4% |
| sense rCrUrGrArGrArCrUrUrGrGrArGrUrUrGrGrArGdTdT / antisense rCrUrCrCrArArCrUrCrCrArArGrUrCrUrCrArGdTdG | 81.5% |
| sense rArUrGrGrCrGrArArGrArUrGrGrCrCrGrArGrAdTdT / antisense rUrCrUrCrGrGrCrCrArUrCrUrUrCrGrCrCrArUdCdT | 78.7% |
| sense rArCrGrArCrCrUrCrGrArUrArUrGrArGrUrUrUdTdT / antisense rArArArCrUrCrArUrArUrCrGrArGrGrUrCrGrUdCdA | 70% |
| sense rUrGrUrUrGrGrGrArCrArGrCrCrUrArArCrUrCdTdT / antisense rGrArGrUrUrArGrGrCrUrGrUrCrCrCrArArCrAdAdA | 85.6% |
| sense rGrCrUrCrUrUrUrCrUrUrGrGrGrUrGrArCrCrUdTdT / antisense rArGrGrUrCrArCrCrCrArArGrArArArGrArGrCdAdA | 95.8% |
| sense rCrArCrUrArCrGrUrUrUrCrUrGrCrUrArUrGrGdTdT / antisense rCrCrArUrArGrCrArGrArArArCrGrUrArGrUrGdTdC | 58% |
| sense rGrGrUrArUrCrCrCrCrArUrArUrArUrUrUrGrAdTdT / antisense rUrCrArArArUrArUrArUrGrGrGrGrArUrArCrCdAdA | 76.3% |
| sense rGrUrGrUrGrUrUrCrCrUrGrArArUrUrUrGrArGdTdT / antisense rCrUrCrArArArUrUrCrArGrGrArArCrArCrArCdCdA | 32.7% |
| sense rGrCrUrGrArArArCrCrArGrArGrArGrCrCrUrUdTdT / antisense rArArGrGrCrUrCrUrCrUrGrGrUrUrUrCrArGrCdTdT | 102% |
| sense rArCrUrArUrCrUrArUrUrArUrArArCrCrUrGrCdTdT / antisense rGrCrArGrGrUrUrArUrArArUrArGrArUrArGrUdGdT | 42.2% |
| sense rArCrCrUrGrArUrArArGrCrArUrUrUrGrArGrGdTdT / antisense rCrCrUrCrArArArUrGrCrUrUrArUrCrArGrGrUdCdT | 46.8% |
| sense rCrUrArGrGrArCrUrGrArUrGrArCrCrUrGrGrGdTdT / antisense rCrCrCrArGrGrUrCrArUrCrArGrUrCrCrUrArGdCdC | 63.1% |
| sense rArCrCrUrGrArUrArGrCrUrCrCrCrUrGrArArCdTdT / antisense rGrUrUrCrArGrGrGrArGrCrUrArUrCrArGrGrUdCdA | 68.5% |
| sense rCrUrUrGrCrArArUrArCrCrCrUrUrUrGrUrGrUdTdT / antisense rArCrArCrArArArGrGrGrUrArUrUrGrCrArArGdGdA | 74.1% |
| sense rUrCrUrUrGrGrGrUrGrArCrCrUrGrArUrArGrCdTdT / antisense rGrCrUrArUrCrArGrGrUrCrArCrCrCrArArGrAdAdA | 45.6% |
| sense rUrUrGrGrArArArArUrGrCrGrCrUrCrArCrArUdTdT / antisense rArUrGrUrGrArGrCrGrCrArUrUrUrUrCrCrArAdAdT | 38.7% |
| sense rArCrUrUrCrArArGrGrArArGrArGrGrCrGrUrCdTdT / antisense rGrArCrGrCrCrUrCrUrUrCrCrUrUrGrArArGrUdTdT | 82.5% |
| sense rGrGrCrCrUrUrArCrArCrGrGrCrUrArGrGrArCdTdT / antisense rGrUrCrCrUrArGrCrCrGrUrGrUrArArGrGrCrCdCdA | 60% |
| sense rCrUrGrUrGrGrGrArGrArUrGrGrArCrArArUrAdTdT / antisense rUrArUrUrGrUrCrCrArUrCrUrCrCrCrArCrArGdCdT | 82.9% |
| sense rUrCrGrUrGrCrGrGrCrGrGrArUrArGrArGrArAdTdT / antisense rUrUrCrUrCrUrArUrCrCrGrCrCrGrCrArCrGrAdGdC | 87.2% |
| sense rUrCrUrGrGrUrUrGrArGrUrGrArUrGrGrCrGrAdTdT / antisense rUrCrGrCrCrArUrCrArCrUrCrArArCrCrArGrAdAdT | 75.7% |
| sense rArArCrUrUrUrGrGrGrUrCrCrCrUrGrUrGrArCdTdT / antisense rGrUrCrArCrArGrGrGrArCrCrCrArArArGrUrUdCdA | 26.8% |
